Laboratory results taken from ChEMBL document CHEMBL3745645, “Synthesis, in vitro antitumor activity, dihydrofolate reductase inhibition, DNA intercalation and structure-activity relationship studies of 1,3,5-triazine analogues” (Bioorg Med Chem Lett, 2016).
Calls of active or inactive are those of the source. The calls are words filed in the database; no cut-off is given here.

Legend:
Type in all cases: functional
[1] = Cytotoxicity against human SF539 cells at 10 uM after 48 hrs by SRB assay; details: SF-539, 48 h, read-out: GI
[2] = Cytotoxicity against human UACC257 cells at 10 uM after 48 hrs by SRB assay; details: UACC-257, 48 h, read-out: GI
[3] = system: SK-MEL-2; experiment: Cytotoxicity against human SK-MEL-2 cells at 10 uM after 48 hrs by SRB assay
[4] = Cytotoxicity against human HCT15 cells at 10 uM after 48 hrs by SRB assay; details: HCT-15, 48 h, read-out: GI
[5] = Cytotoxicity against human SF268 cells at 10 uM after 48 hrs by SRB assay; details: SF-268, 48 h, read-out: GI
[6] = system: K562; experiment: Cytotoxicity against human K562 cells at 10 uM after 48 hrs by SRB assay; details: K562, 48 h, read-out: GI
[7] = Cytotoxicity against human OVCAR4 cells at 10 uM after 48 hrs by SRB assay; details: OVCAR-4, 48 h, read-out: GI
[8] = system: SK-MEL-28; experiment: Cytotoxicity against human SK-MEL-28 cells at 10 uM after 48 hrs by SRB assay
[9] = system: CCRF-CEM; experiment: Cytotoxicity against human CCRF-CEM cells at 10 uM after 48 hrs by SRB assay; details: read-out: GI
[10] = system: U-251; experiment: Cytotoxicity against human U251 cells at 10 uM after 48 hrs by SRB assay
[11] = Cytotoxicity against human Caki1 cells at 10 uM after 48 hrs by SRB assay; details: CAKI-1, 48 h, read-out: GI
[12] = system: A549; experiment: Cytotoxicity against human A549 cells at 10 uM after 48 hrs by SRB assay; details: A549, 48 h, read-out: GI
[13] = Cytotoxicity against human PC3 cells at 10 uM after 48 hrs by SRB assay; details: PC-3, 48 h, read-out: GI
[14] = Cytotoxicity against human COLO205 cells at 10 uM after 48 hrs by SRB assay; details: COLO 205, 48 h, read-out: GI
[15] = Cytotoxicity against human NCI-ADR-RES cells at 10 uM after 48 hrs by SRB assay; details: read-out: GI
[16] = Cytotoxicity against human HCT116 cells at 10 uM after 48 hrs by SRB assay; details: HCT-116, 48 h, read-out: GI
[17] = Cytotoxicity against human SNB19 cells at 10 uM after 48 hrs by SRB assay; details: SNB-19, 48 h, read-out: GI
[18] = system: MDA-MB-435; experiment: Cytotoxicity against human MDA-MB-435 cells at 10 uM after 48 hrs by SRB assay; details: MDA-MB-435, 48 h, read-out: GI
[19] = system: MCF7; experiment: Cytotoxicity against human MCF7 cells at 10 uM after 48 hrs by SRB assay; details: MCF7, 48 h, read-out: GI
[20] = Cytotoxicity against human SW620 cells at 10 uM after 48 hrs by SRB assay; details: SW-620, 48 h, read-out: GI
[21] = Cytotoxicity against human BT549 cells at 10 uM after 48 hrs by SRB assay; details: BT-549, 48 h, read-out: GI
[22] = system: ACHN; experiment: Cytotoxicity against human ACHN cells at 10 uM after 48 hrs by SRB assay; details: read-out: GI
[23] = system: TK-10; experiment: Cytotoxicity against human TK10 cells at 10 uM after 48 hrs by SRB assay
[24] = Cytotoxicity against human SNB75 cells at 10 uM after 48 hrs by SRB assay; details: SNB-75, 48 h, read-out: GI
[25] = Cytotoxicity against human HOP92 cells at 10 uM after 48 hrs by SRB assay; details: HOP-92, 48 h, read-out: GI
[26] = Cytotoxicity against human MOLT4 cells at 10 uM after 48 hrs by SRB assay; details: MOLT-4, 48 h, read-out: GI
[27] = Cytotoxicity against human LOXIMVI cells at 10 uM after 48 hrs by SRB assay; details: LOX IMVI, read-out: GI
[28] = system: Malme-3M; experiment: Cytotoxicity against human MALME-3M cells at 10 uM after 48 hrs by SRB assay
[29] = system: NCI-H226; experiment: Cytotoxicity against human NCI-H226 cells at 10 uM after 48 hrs by SRB assay; details: NCI-H226, 48 h, read-out: GI
[30] = system: 786-0; experiment: Cytotoxicity against human 786-0 cells at 10 uM after 48 hrs by SRB assay; details: 786-0, 48 h, read-out: GI
[31] = Cytotoxicity against human UACC62 cells at 10 uM after 48 hrs by SRB assay; details: UACC-62, 48 h, read-out: GI
[32] = system: NCI-H460; experiment: Cytotoxicity against human NCI-H460 cells at 10 uM after 48 hrs by SRB assay
[33] = Cytotoxicity against human IGROV1 cells at 10 uM after 48 hrs by SRB assay; details: IGROV-1, 48 h, read-out: GI
[34] = system: M14; experiment: Cytotoxicity against human M14 cells at 10 uM after 48 hrs by SRB assay
[35] = system: MDA-MB-231; experiment: Cytotoxicity against human MDA-MB-231 cells at 10 uM after 48 hrs by SRB assay; details: MDA-MB-231, 48 h, read-out: GI
[36] = Cytotoxicity against human UO31 cells at 10 uM after 48 hrs by SRB assay; details: UO-31, 48 h, read-out: GI
[37] = Cytotoxicity against human HOP62 cells at 10 uM after 48 hrs by SRB assay; details: HOP-62, 48 h, read-out: GI
[38] = system: SK-OV-3; experiment: Cytotoxicity against human SKOV3 cells at 10 uM after 48 hrs by SRB assay
[39] = system: HT-29; experiment: Cytotoxicity against human HT-29 cells at 10 uM after 48 hrs by SRB assay; details: HT-29, 48 h, read-out: GI
[40] = system: SK-MEL-5; experiment: Cytotoxicity against human SK-MEL-5 cells at 10 uM after 48 hrs by SRB assay; details: SK-MEL-5, 48 h, read-out: GI
[41] = Cytotoxicity against human OVCAR5 cells at 10 uM after 48 hrs by SRB assay; details: OVCAR-5, 48 h, read-out: GI
[42] = system: A498; experiment: Cytotoxicity against human A498 cells at 10 uM after 48 hrs by SRB assay; details: A498, 48 h, read-out: GI
[43] = system: MDA-MB-468; experiment: Cytotoxicity against human MDA-MB-468 cells at 10 uM after 48 hrs by SRB assay; details: MDA-MB-468, 48 h, read-out: GI
[44] = system: T47D; experiment: Cytotoxicity against human T47D cells at 10 uM after 48 hrs by SRB assay; details: read-out: GI
[45] = Cytotoxicity against human Hs 578T cells at 10 uM after 48 hrs by SRB assay; details: read-out: GI
[46] = Cytotoxicity against human OVCAR8 cells at 10 uM after 48 hrs by SRB assay; details: OVCAR-8, 48 h, read-out: GI
[47] = system: HL-60(TB); experiment: Cytotoxicity against human HL-60(TB) cells at 10 uM after 48 hrs by SRB assay
[48] = system: SN12C; experiment: Cytotoxicity against human SN12C cells at 10 uM after 48 hrs by SRB assay; details: read-out: GI
[49] = system: DU-145; experiment: Cytotoxicity against human DU145 cells at 10 uM after 48 hrs by SRB assay
[50] = Cytotoxicity against human OVCAR3 cells at 10 uM after 48 hrs by SRB assay; details: OVCAR-3, 48 h, read-out: GI
[51] = system: RXF 393; experiment: Cytotoxicity against human RXF393 cells at 10 uM after 48 hrs by SRB assay
[52] = Cytotoxicity against human SF295 cells at 10 uM after 48 hrs by SRB assay; details: SF-295, 48 h, read-out: GI
[53] = system: HCC 2998; experiment: Cytotoxicity against human HCC2998 cells at 10 uM after 48 hrs by SRB assay
[54] = system: KM12; experiment: Cytotoxicity against human KM12 cells at 10 uM after 48 hrs by SRB assay
[55] = system: NCI-H522; experiment: Cytotoxicity against human NCI-H522 cells at 10 uM after 48 hrs by SRB assay; details: NCI-H522, 48 h, read-out: GI
[56] = system: SR; experiment: Cytotoxicity against human SR cells at 10 uM after 48 hrs by SRB assay; details: read-out: GI
[57] = Cytotoxicity against human RPMI8226 cells at 10 uM after 48 hrs by SRB assay; details: RPMI-8226, 48 h, read-out: GI

For Cc1nc2cc(Nc3nc(Nc4ccc(F)cc4)nc(Nc4ccc(F)cc4)n3)ccc2n1Cc1ccccc1, the inhibition of growth at 10 µM [1] was 10.4%, the inhibition of growth at 10 µM [2] was 3.11% and the “growth inhibition (GI)” value [3] was “inactive”. The inhibition of growth at 10 µM [4] was 10.8%, the inhibition of growth at 10 µM [5] was 3.68% and the inhibition of growth at 10 µM [6] was 18.6%. The inhibition of growth at 10 µM [7] was 14.4%, the “growth inhibition (GI)” value [8] was “inactive” and the inhibition of growth at 10 µM [9] was 10.6%. For the same compound, the “growth inhibition (GI)” value [10] was “inactive”, the inhibition of growth at 10 µM [11] was 10.1% and the inhibition of growth at 10 µM [12] was 8.48%. For the same compound, the inhibition of growth at 10 µM [13] was 23.2%, the inhibition of growth at 10 µM [14] was 2.84% and the inhibition of growth at 10 µM [15] was 10.6%. For the same compound, the inhibition of growth at 10 µM [16] was 12.2%, the inhibition of growth at 10 µM [17] was 3.99% and the inhibition of growth at 10 µM [18] was 0.94%. It also gave an inhibition of growth at 10 µM [19] of 11.5%, an inhibition of growth at 10 µM [20] of 3.96% and an inhibition of growth at 10 µM [21] of 5.26%. For the same compound, the inhibition of growth at 10 µM [22] was 7.88%, the “growth inhibition (GI)” value [23] was “inactive” and the inhibition of growth at 10 µM [24] was 24.8%. For the same compound, the inhibition of growth at 10 µM [25] was 37.6%, the inhibition of growth at 10 µM [26] was 15.2% and the inhibition of growth at 10 µM [27] was 7.8%. The “growth inhibition (GI)” value [28] was “inactive”, the inhibition of growth at 10 µM [29] was 13.8% and the inhibition of growth at 10 µM [30] was 13.2%. The inhibition of growth at 10 µM [31] was 10.2%, the “growth inhibition (GI)” value [32] was “inactive” and the inhibition of growth at 10 µM [33] was 16.9%. For the same compound, the “growth inhibition (GI)” value [34] was “inactive”, the inhibition of growth at 10 µM [35] was 24.5% and the inhibition of growth at 10 µM [36] was 39.3%. The inhibition of growth at 10 µM [37] was 8.91%, the “growth inhibition (GI)” value [38] was “inactive” and the inhibition of growth at 10 µM [39] was 1.3%. The inhibition of growth at 10 µM [40] was 1.09%, the inhibition of growth at 10 µM [41] was 4.24% and the inhibition of growth at 10 µM [42] was 21.9%. It also gave an inhibition of growth at 10 µM [43] of 9.45%, an inhibition of growth at 10 µM [44] of 10.7% and an inhibition of growth at 10 µM [45] of 10.4%. The inhibition of growth at 10 µM [46] was 9.21%, the “growth inhibition (GI)” value [47] was “inactive” and the inhibition of growth at 10 µM [48] was 5.75%. For the same compound, the “growth inhibition (GI)” value [49] was “inactive”, the inhibition of growth at 10 µM [50] was 4.79% and the “growth inhibition (GI)” value [51] was “inactive”. The inhibition of growth at 10 µM [52] was 8.21%, the “growth inhibition (GI)” value [53] was “inactive” and the “growth inhibition (GI)” value [54] was “inactive”. The inhibition of growth at 10 µM [55] was 14.2%, the inhibition of growth at 10 µM [56] was 18.6% and the inhibition of growth at 10 µM [57] was 14.3%.
